≈ marks a conversion by molar mass, not a printed value.
system: Staphylococcus aureus; experiment: Antibacterial activity against methicillin-resistant Staphylococcus aureus USA300 LAC assessed as reduction in bacterial growth incubated for 21 hrs by broth dilution method; type: functional

SMILES | MIC
CC(C)C[C@H]1NC(=O)[C@H](Cc2cscn2)NC(=O)[C@@H](C(C)C)NC(=O)[C@@H]2CSC(N2)[C@H](C(C)C)NC(=O)[C@@H](C(C)C)NC(=O)[C@H](C(C)C)NC1=O | 133 µM (≈ 100 µg/mL)
CC(C)C[C@H]1NC(=O)[C@H](Cc2ccc(Cl)cc2)NC(=O)[C@@H](C(C)C)NC(=O)[C@@H]2CSC(N2)[C@H](C(C)C)NC(=O)[C@@H](C(C)C)NC(=O)[C@H](C(C)C)NC1=O | 129 µM (≈ 100 µg/mL)
CC(C)C[C@H]1NC(=O)[C@H](C(c2ccccc2)c2ccccc2)NC(=O)[C@@H](C(C)C)NC(=O)[C@@H]2CSC(N2)[C@H](C(C)C)NC(=O)[C@@H](C(C)C)NC(=O)[C@H](C(C)C)NC1=O | 61.1 µM (≈ 50.1 µg/mL)
CC(C)C[C@H]1NC(=O)[C@H](c2ccccc2)NC(=O)[C@@H](C(C)C)NC(=O)[C@@H]2CSC(N2)[C@H](C(C)C)NC(=O)[C@@H](C(C)C)NC(=O)[C@H](C(C)C)NC1=O | 137 µM (≈ 100 µg/mL)
CC(C)C[C@H]1NC(=O)[C@H](Cc2ccc(O)c(O)c2)NC(=O)[C@@H](C(C)C)NC(=O)[C@@H]2CSC(N2)[C@H](C(C)C)NC(=O)[C@@H](C(C)C)NC(=O)[C@H](C(C)C)NC1=O | 130 µM (≈ 101 µg/mL)
CC(C)C[C@H]1NC(=O)[C@H](Cc2ccncc2)NC(=O)[C@@H](C(C)C)NC(=O)[C@@H]2CSC(N2)[C@H](C(C)C)NC(=O)[C@@H](C(C)C)NC(=O)[C@H](C(C)C)NC1=O | 134 µM (≈ 100 µg/mL)
CC(C)C[C@H]1NC(=O)[C@H](Cc2cccc([N+](=O)[O-])c2)NC(=O)[C@@H](C(C)C)NC(=O)[C@@H]2CSC(N2)[C@H](C(C)C)NC(=O)[C@@H](C(C)C)NC(=O)[C@H](C(C)C)NC1=O | 127 µM (≈ 100 µg/mL)
CC(C)C[C@H]1NC(=O)[C@H](Cc2nc3ccccc3s2)NC(=O)[C@@H](C(C)C)NC(=O)[C@@H]2CSC(N2)[C@H](C(C)C)NC(=O)[C@@H](C(C)C)NC(=O)[C@H](C(C)C)NC1=O | 31.3 µM (≈ 25.1 µg/mL)
CC(C)C[C@H]1NC(=O)[C@H](Cc2ccco2)NC(=O)[C@@H](C(C)C)NC(=O)[C@@H]2CSC(N2)[C@H](C(C)C)NC(=O)[C@@H](C(C)C)NC(=O)[C@H](C(C)C)NC1=O | 136 µM (≈ 100 µg/mL)
CC(C)C[C@H]1NC(=O)[C@H](Cc2ccc(C(=O)c3ccccc3)cc2)NC(=O)[C@@H](C(C)C)NC(=O)[C@@H]2CSC(N2)[C@H](C(C)C)NC(=O)[C@@H](C(C)C)NC(=O)[C@H](C(C)C)NC1=O | 59 µM (≈ 50 µg/mL)
CC(C)C[C@H]1NC(=O)[C@H](Cc2cccs2)NC(=O)[C@@H](C(C)C)NC(=O)[C@@H]2CSC(N2)[C@H](C(C)C)NC(=O)[C@@H](C(C)C)NC(=O)[C@H](C(C)C)NC1=O | 134 µM (≈ 100 µg/mL)
CC(C)C[C@H]1NC(=O)[C@H](Cc2cccc3ccccc23)NC(=O)[C@@H](C(C)C)NC(=O)[C@@H]2CSC(N2)[C@H](C(C)C)NC(=O)[C@@H](C(C)C)NC(=O)[C@H](C(C)C)NC1=O | 7.9 µM (≈ 6.27 µg/mL)
CC(C)C[C@H]1NC(=O)[C@@H]2CSC(N2)[C@H](C(C)C)NC(=O)[C@@H](C(C)C)NC(=O)[C@H](C(C)C)NC(=O)[C@@H](CC(C)C)NC(=O)[C@H](Cc2c[nH]c3ccccc23)NC1=O | 15.7 µM (≈ 12.5 µg/mL)
CC(C)C[C@H]1NC(=O)[C@H](Cc2csc3ccccc23)NC(=O)[C@@H](C(C)C)NC(=O)[C@@H]2CSC(N2)[C@H](C(C)C)NC(=O)[C@@H](C(C)C)NC(=O)[C@H](C(C)C)NC1=O | 15.6 µM (≈ 12.5 µg/mL)
CC[C@H](C)[C@H]1NC(=O)[C@@H]2CSC(N2)[C@H](C(C)C)NC(=O)[C@@H](C(C)C)NC(=O)[C@H](C(C)C)NC(=O)[C@@H](CC(C)C)NC(=O)[C@H](Cc2c[nH]c3ccccc23)NC1=O | 7.9 µM (≈ 6.3 µg/mL)
CC(C)C[C@H]1NC(=O)[C@H](Cc2c[nH]cn2)NC(=O)[C@@H](C(C)C)NC(=O)[C@@H]2CSC(N2)[C@H](C(C)C)NC(=O)[C@@H](C(C)C)NC(=O)[C@H](C(C)C)NC1=O | 136 µM (≈ 100 µg/mL)
CC(C)C[C@H]1NC(=O)[C@H](Cc2c(F)c(F)c(F)c(F)c2F)NC(=O)[C@@H](C(C)C)NC(=O)[C@@H]2CSC(N2)[C@H](C(C)C)NC(=O)[C@@H](C(C)C)NC(=O)[C@H](C(C)C)NC1=O | 30 µM (≈ 25 µg/mL)
CC(C)C[C@H]1NC(=O)[C@H](Cc2ccc(-c3ccccc3)cc2)NC(=O)[C@@H](C(C)C)NC(=O)[C@@H]2CSC(N2)[C@H](C(C)C)NC(=O)[C@@H](C(C)C)NC(=O)[C@H](C(C)C)NC1=O | 30.5 µM (≈ 25 µg/mL)
